# Target: T1, GO (Homo sapiens, UniProt Q9UJM8)
# T1 sequence (Q9UJM8 1-370): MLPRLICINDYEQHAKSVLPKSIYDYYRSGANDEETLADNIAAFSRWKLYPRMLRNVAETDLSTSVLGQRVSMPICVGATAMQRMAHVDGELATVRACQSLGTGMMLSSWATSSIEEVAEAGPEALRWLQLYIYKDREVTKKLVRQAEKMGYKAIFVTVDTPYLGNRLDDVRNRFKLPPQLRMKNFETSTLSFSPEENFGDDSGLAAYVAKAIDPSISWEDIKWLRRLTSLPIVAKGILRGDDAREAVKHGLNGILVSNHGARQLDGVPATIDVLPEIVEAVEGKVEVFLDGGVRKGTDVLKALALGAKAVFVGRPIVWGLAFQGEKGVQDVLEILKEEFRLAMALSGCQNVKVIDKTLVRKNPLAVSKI
# Assay: GO Enzymatic Assay (Assay 1)
# Format: biochemical
# Set-up: purchased Novus Biologicals NBP1-72412
# Details: Table 4; class symbols without asterisk, GO Enzymatic Assay (Assay 1); read-out: Range
# Experimental: Assay 1: GO Enzymatic Assay
# GO was incubated with its substrate, glycolate, in 50 mM potassium phosphate buffer, pH 7. […] The enzyme was optimized and the kinetics was determined.
# Compound inhibition was determined by adding various concentrations of inhibitors in the GO enzyme assay. The IC50 value for each measured compound was generated from sigmoidal dose-response (variable slope) curves with GraphPad Prism software (GraphPad Software, Inc., San Diego, Calif.) using the percent inhibition of GO activity relative to DMSO control.
row,SMILES,IC50
1,"N#Cc1ccc([C@H]2C[C@H](Oc3nn[nH]c3C(=O)O)C2)cc1 [Compound 404, 4-((trans)-3-(4-cyanophenyl)cyclobutoxy)-1H-1,2,3-triazole-5-carboxylic acid 2,2,2-trifluoroacetate]",< 100 nM
2,"O=C(O)c1[nH]nnc1O[C@H]1CC[C@H](c2ccc(-n3cccn3)cc2)CC1 [Compound 418, 4-(((trans)-4-(4-(1H-pyrazol-1-yl)phenyl)cyclohexyl)oxy)-1H-1,2,3-triazole-5-carboxylic acid]",< 100 nM
3,"O=C(O)c1[nH]nnc1O[C@H]1CC[C@H](c2ccc(OC(F)(F)F)c(Cl)c2)CC1 [Compound 419, 4-(((trans)-4-(3-chloro-4-(trifluoromethoxy)phenyl)cyclohexyl)oxy)-1H-1,2,3-triazole-5-carboxylic acid]",< 100 nM
4,"N#Cc1ccc([C@H]2C[C@H](Sc3nn[nH]c3C(=O)O)C2)cc1 [Compound 420, 4-(((trans)-3-(4-cyanophenyl)cyclobutyl)thio)-1H-1,2,3-triazole-5-carboxylic acid 2,2,2-trifluoroacetate]",< 100 nM
5,"O=C(O)c1[nH]nnc1S[C@H]1CC[C@H](c2ccc(OC(F)(F)F)cc2)CC1 [Compound 422, 4-(((trans)-4-(4-(trifluoromethoxy)phenyl)cyclohexyl)thio)-1H-1,2,3-triazole-5-carboxylic acid]",< 100 nM
6,"N#Cc1ccc(COc2cc(Oc3nn[nH]c3C(=O)O)ccc2Cl)cc1 [Compound 423, 4-(4-chloro-3-((4-cyanobenzyl)oxy)phenoxy)-1H-1,2,3-triazole-5-carboxylic acid]",< 100 nM
7,"O=C(O)c1[nH]nnc1O[C@H]1CC[C@H](c2ccc(F)cc2F)CC1 [Compound 424, 4-(((trans)-4-(2,4-difluorophenyl)cyclohexyl)oxy)-1H-1,2,3-triazole-5-carboxylic acid 2,2,2-trifluoroacetate]",< 100 nM
8,"O=C(O)c1[nH]nnc1O[C@H]1CC[C@H](c2ccc(-c3nnc[nH]3)cc2)CC1 [Compound 425, 4-(((trans)-4-(4-(4H-1,2,4-triazol-3-yl)phenyl)cyclohexyl)oxy)-1H-1,2,3-triazole-5-carboxylic acid]",< 100 nM
9,"O=C(O)c1[nH]nnc1O[C@H]1C[C@H](c2ccc(N3CCCCC3)cc2)C1 [Compound 426, 4-((trans)-3-(4-(piperidin-1-yl)phenyl)cyclobutoxy)-1H-1,2,3-triazole-5-carboxylic acid 2,2,2-trifluoroacetate]",< 100 nM
10,"O=C(O)c1[nH]nnc1S[C@H]1CC[C@H](c2cc(Cl)ccc2OC(F)(F)F)CC1 [Compound 430, 4-(((trans)-4-(5-chloro-2-(trifluoromethoxy)phenyl)cyclohexyl)thio)-1H-1,2,3-triazole-5-carboxylic acid]",< 100 nM
11,"O=C(O)c1[nH]nnc1O[C@H]1CC[C@H](c2ccc(-c3nncs3)cc2)CC1 [Compound 431, 4-(((trans)-4-(4-(1,3,4-thiadiazol-2-yl)phenyl)cyclohexyl)oxy)-1H-1,2,3-triazole-5-carboxylic acid 2,2,2-trifluoroacetate]",< 100 nM
12,"O=C(O)c1[nH]nnc1S[C@H]1CC[C@H](c2ccc(N3CCCCC3)cc2)CC1 [Compound 432, 4-(((trans)-4-(4-(piperidin-1-yl)phenyl)cyclohexyl)thio)-1H-1,2,3-triazole-5-carboxylic acid 2,2,2-trifluoroacetate]",< 100 nM
13,"O=C(O)c1[nH]nnc1O[C@H]1CC[C@H](c2ccc(-c3nnco3)cc2)CC1 [Compound 433, 4-(((trans)-4-(4-(1,3,4-oxadiazol-2-yl)phenyl)cyclohexyl)oxy)-1H-1,2,3-triazole-5-carboxylic acid]",< 100 nM
14,"O=C(O)c1[nH]nnc1S[C@H]1C[C@H](c2ccc(N3CCCCC3)cc2)C1 [Compound 434, 4-(((trans)-3-(4-(piperidin-1-yl)phenyl)cyclobutyl)thio)-1H-1,2,3-triazole-5-carboxylic acid 2,2,2-trifluoroacetate]",< 100 nM
15,"O=C(O)c1[nH]nnc1O[C@H]1CC[C@H](c2ccc(N3CCCCC3)cc2)CC1 [Compound 436, 4-(((trans)-4-(4-(piperidin-1-yl)phenyl)cyclohexyl)oxy)-1H-1,2,3-triazole-5-carboxylic acid 2,2,2-trifluoroacetate]",< 100 nM
16,"CS(=O)(=O)c1ccc([C@H]2CC[C@H](Oc3nn[nH]c3C(=O)O)CC2)cc1 [Compound 438, 4-(((trans)-4-(4-(methylsulfonyl)phenyl)cyclohexyl)oxy)-1H-1,2,3-triazole-5-carboxylic acid]",< 100 nM
17,"CS(=O)(=O)c1ccc([C@H]2CC[C@H](Sc3nn[nH]c3C(=O)O)CC2)cc1 [Compound 439, 4-(((trans)-4-(4-(methylsulfonyl)phenyl)cyclohexyl)thio)-1H-1,2,3-triazole-5-carboxylic acid 2,2,2-trifluoroacetate]",< 100 nM

# The remaining lines, values ahead:
row,IC50,SMILES
1,< 100 nM,"N#Cc1ccc(Oc2nn[nH]c2C(=O)O)cc1OCc1ccc(F)cc1 [Compound 390, 4-(4-cyano-3-((4-fluorobenzyl)oxy)phenoxy)-1H-1,2,3-triazole-5-carboxylic acid]"
2,< 100 nM,"N#Cc1ccc(-c2ccc(Oc3nn[nH]c3C(=O)O)cc2Cl)cc1 [Compound 394, 4-((2-chloro-4′-cyano-[1,1′-biphenyl]-4-yl)oxy)-1H-1,2,3-triazole-5-carboxylic acid]"
3,< 100 nM,"O=C(O)c1[nH]nnc1O[C@H]1CC[C@H](c2cc(OC(F)(F)F)ccc2Cl)CC1 [Compound 395, 4-(((trans)-4-(2-chloro-5-(trifluoromethoxy)phenyl)cyclohexyl)oxy)-1H-1,2,3-triazole-5-carboxylic acid]"
4,< 100 nM,"O=C(O)c1[nH]nnc1O[C@H]1CC[C@@H](c2cc(OC(F)(F)F)ccc2Cl)CC1 [Compound 396, 4-(((cis)-4-(2-chloro-5-(trifluoromethoxy)phenyl)cyclohexyl)oxy)-1H-1,2,3-triazole-5-carboxylic acid]"
5,< 100 nM,"NC(=O)c1ccc(-c2ccc(Oc3nn[nH]c3C(=O)O)cc2)cc1 [Compound 397, 4-((4′-carbamoyl-[1,1′-biphenyl]-4-yl)oxy)-1H-1,2,3-triazole-5-carboxylic acid]"
6,< 100 nM,"O=C(O)c1[nH]nnc1Sc1ccc(-c2ccc(Cl)cc2)c(OCC2CCCC2)c1 [Compound 398, 4-((4′-chloro-2-(cyclopentylmethoxy)-[1,1′-biphenyl]-4-yl)thio)-1H-1,2,3-triazole-5-carboxylic acid 2,2,2-trifluoroacetate]"
7,< 100 nM,"O=C(O)c1[nH]nnc1Oc1ccc(Cl)c(OC2CCCCC2)c1 [Compound 399, 4-(4-chloro-3-(cyclohexyloxy)phenoxy)-1H-1,2,3-triazole-5-carboxylic acid 2,2,2-trifluoroacetate]"
8,< 100 nM,"O=C(O)c1[nH]nnc1O[C@H]1CC[C@H](c2ccc(-n3cnnc3)cc2)CC1 [Compound 403, 4-(((trans)-4-(4-(4H-1,2,4-triazol-4-yl)phenyl)cyclohexyl)oxy)-1H-1,2,3-triazole-5-carboxylic acid]"
9,< 100 nM,"O=C(O)c1[nH]nnc1O[C@H]1CC[C@H](c2ccc(-n3cncn3)cc2)CC1 [Compound 405, 4-(((trans)-4-(4-(1H-1,2,4-triazol-1-yl)phenyl)cyclohexyl)oxy)-1H-1,2,3-triazole-5-carboxylic acid]"
10,< 100 nM,"O=C(O)c1[nH]nnc1O[C@H]1CC[C@H](c2ccc3ncccc3c2)CC1 [Compound 409, 4-(((trans)-4-(quinolin-6-yl)cyclohexyl)oxy)-1H-1,2,3-triazole-5-carboxylic acid 2,2,2-trifluoroacetate]"
11,< 100 nM,"O=C(O)c1[nH]nnc1S[C@H]1CC[C@H](c2ccc3ncccc3c2)CC1 [Compound 410, 4-(((trans)-4-(quinolin-6-yl)cyclohexyl)thio)-1H-1,2,3-triazole-5-carboxylic acid 2,2,2-trifluoroacetate]"
12,< 100 nM,"O=C(O)c1[nH]nnc1S[C@H]1CC[C@H](c2cc(OC(F)(F)F)ccc2Cl)CC1 [Compound 411, 4-(((trans)-4-(2-chloro-5-(trifluoromethoxy)phenyl)cyclohexyl)thio)-1H-1,2,3-triazole-5-carboxylic acid]"
13,< 100 nM,"O=C(O)c1[nH]nnc1O[C@H]1CC[C@H](c2ccc(N3CCCC3=O)cc2)CC1 [Compound 412, 4-(((trans)-4-(4-(2-oxopyrrolidin-1-yl)phenyl)cyclohexyl)oxy)-1H-1,2,3-triazole-5-carboxylic acid]"
14,< 100 nM,"CN(C)C(=O)c1ccc([C@H]2CC[C@H](Oc3nn[nH]c3C(=O)O)CC2)cc1 [Compound 414, 4-(((trans)-4-(4-(dimethylcarbamoyl)phenyl)cyclohexyl)oxy)-1H-1,2,3-triazole-5-carboxylic acid 2,2,2-trifluoroacetate]"
15,< 100 nM,"O=C(O)c1[nH]nnc1O[C@H]1CC[C@H](c2ccc(C(=O)N3CCOCC3)cc2)CC1 [Compound 416, 4-(((trans)-4-(4-(morpholine-4-carbonyl)phenyl)cyclohexyl)oxy)-1H-1,2,3-triazole-5-carboxylic acid 2,2,2-trifluoroacetate]"
16,< 100 nM,"O=C(O)c1[nH]nnc1O[C@H]1CC[C@H](c2ccc(C(=O)N3CCCCC3)cc2)CC1 [Compound 417, 4-(((trans)-4-(4-(piperidine-1-carbonyl)phenyl)cyclohexyl)oxy)-1H-1,2,3-triazole-5-carboxylic acid 2,2,2-trifluoroacetate]"

# — patent publication US20230088214A1, “GLYCOLATE OXIDASE INHIBITORS FOR THE TREATMENT OF DISEASE” (BIOMARIN PHARMACEUTICAL INC., priority 2019, published 2023)
